# Organism: Rattus norvegicus
# Test: DrugMatrix - Regimen: Daily Repeat
# Format: toxicity, organism-based, Sprague-Dawley
# Set-up: regimen Daily Repeat, gender Male, age 6-8 weeks
# Conditions: in vivo, iv, 2 mg/kg, dose level High, vehicle 100 % SALINE; for ABSOLUTE BASOPHIL / ABSOLUTE EOSINOPHIL / ABSOLUTE LYMPHOCYTE / ABSOLUTE MONOCYTE / ABSOLUTE SEGMENTED NEUTROPHIL / BASOPHIL / EOSINOPHIL / ERYTHROCYTE COUNT / HEMATOCRIT / HEMOGLOBIN / LEUKOCYTE COUNT / LYMPHOCYTE / MEAN CORPUSCULAR HEMOGLOBIN / MEAN CORPUSCULAR HEMOGLOBIN CONCENTRATION / MEAN CORPUSCULAR VOLUME / MONOCYTE / NEUTROPHIL / NUCLEATED RED BLOOD CELLS / PLATELET COUNT: tissue Blood; for ALANINE AMINOTRANSFERASE / ALBUMIN / ALKALINE PHOSPHATASE / ASPARTATE AMINOTRANSFERASE / BLOOD UREA NITROGEN / CARBON DIOXIDE / CHLORIDE / CHOLESTEROL / CREATINE PHOSPHOKINASE / CREATININE / GLUCOSE / LACTATE DEHYDROGENASE / LIPASE / PHOSPHORUS / POTASSIUM / SODIUM / TOTAL BILIRUBIN / TOTAL PROTEIN / URIC ACID: tissue Plasma
compound,measurement,setting,value
O=C1c2c(O)ccc(O)c2C(=O)c2c(NCCNCCO)ccc(NCCNCCO)c21 [MITOXANTRONE],ABSOLUTE BASOPHIL,"72 h, time 3 day",0 CELLS/uL
same,ABSOLUTE EOSINOPHIL,"72 h, time 3 day",0 CELLS/uL
same,ABSOLUTE LYMPHOCYTE,"72 h, time 3 day",1529.67 CELLS/uL
same,ABSOLUTE MONOCYTE,"72 h, time 3 day",0 CELLS/uL
same,ABSOLUTE SEGMENTED NEUTROPHIL,"72 h, time 3 day",137 CELLS/uL
same,BASOPHIL,"72 h, time 3 day",0%
same,EOSINOPHIL,"72 h, time 3 day",0%
same,ERYTHROCYTE COUNT,"72 h, time 3 day",5.38 x10E6/uL
same,HEMATOCRIT,"72 h, time 3 day",34.37%
same,HEMOGLOBIN,"72 h, time 3 day",12.83 G/DL
same,LEUKOCYTE COUNT,"72 h, time 3 day",1.67 x10E3/uL
same,LYMPHOCYTE,"72 h, time 3 day",91.67%
same,MEAN CORPUSCULAR HEMOGLOBIN,"72 h, time 3 day",23.9 pg
same,MEAN CORPUSCULAR HEMOGLOBIN CONCENTRATION,"72 h, time 3 day",37.37 G/DL
same,MEAN CORPUSCULAR VOLUME,"72 h, time 3 day",63.87 fL
same,MONOCYTE,"72 h, time 3 day",0%
same,NEUTROPHIL,"72 h, time 3 day",8.33%
same,NUCLEATED RED BLOOD CELLS,"72 h, time 3 day",0 /100WBC
same,PLATELET COUNT,"72 h, time 3 day",1484 x10E3/uL
same,ALANINE AMINOTRANSFERASE,"72 h, time 3 day",42.67 u/L
same,ALBUMIN,"72 h, time 3 day",4.43 G/DL
same,ALKALINE PHOSPHATASE,"72 h, time 3 day",444 u/L
same,ASPARTATE AMINOTRANSFERASE,"72 h, time 3 day",64 u/L
same,BLOOD UREA NITROGEN,"72 h, time 3 day",15.67 mg/dL
same,CARBON DIOXIDE,"72 h, time 3 day",23 mmol/L
same,CHLORIDE,"72 h, time 3 day",104.67 MEQ/L
same,CHOLESTEROL,"72 h, time 3 day",79.33 mg/dL
same,CREATINE PHOSPHOKINASE,"72 h, time 3 day",220.67 u/L
same,CREATININE,"72 h, time 3 day",0.17 mg/dL
same,GLUCOSE,"72 h, time 3 day",180.33 mg/dL
same,LACTATE DEHYDROGENASE,"72 h, time 3 day",145 u/L
same,LIPASE,"72 h, time 3 day",10 u/L
same,PHOSPHORUS,"72 h, time 3 day",12.2 mg/dL
same,POTASSIUM,"72 h, time 3 day",5.98 MEQ/L
same,SODIUM,"72 h, time 3 day",146.2 MEQ/L
same,TOTAL BILIRUBIN,"72 h, time 3 day",0.13 mg/dL
same,TOTAL PROTEIN,"72 h, time 3 day",6.1 G/DL
same,URIC ACID,"72 h, time 3 day",2.67 mg/dL
same,ABSOLUTE BASOPHIL,"120 h, time 5 day",0 CELLS/uL
same,ABSOLUTE EOSINOPHIL,"120 h, time 5 day",0 CELLS/uL
same,ABSOLUTE LYMPHOCYTE,"120 h, time 5 day",1225 CELLS/uL
same,ABSOLUTE MONOCYTE,"120 h, time 5 day",0 CELLS/uL
same,ABSOLUTE SEGMENTED NEUTROPHIL,"120 h, time 5 day",8.33 CELLS/uL
same,BASOPHIL,"120 h, time 5 day",0%
same,EOSINOPHIL,"120 h, time 5 day",0%
same,ERYTHROCYTE COUNT,"120 h, time 5 day",5.82 x10E6/uL
same,HEMATOCRIT,"120 h, time 5 day",35.23%
same,HEMOGLOBIN,"120 h, time 5 day",13.37 G/DL
same,LEUKOCYTE COUNT,"120 h, time 5 day",1.23 x10E3/uL
same,LYMPHOCYTE,"120 h, time 5 day",99.33%
same,MEAN CORPUSCULAR HEMOGLOBIN,"120 h, time 5 day",23.07 pg
same,MEAN CORPUSCULAR HEMOGLOBIN CONCENTRATION,"120 h, time 5 day",37.97 G/DL
same,MEAN CORPUSCULAR VOLUME,"120 h, time 5 day",60.73 fL
same,MONOCYTE,"120 h, time 5 day",0%
same,NEUTROPHIL,"120 h, time 5 day",0.67%
same,NUCLEATED RED BLOOD CELLS,"120 h, time 5 day",0 /100WBC
same,PLATELET COUNT,"120 h, time 5 day",946 x10E3/uL
same,ALANINE AMINOTRANSFERASE,"120 h, time 5 day",32.33 u/L
same,ALBUMIN,"120 h, time 5 day",3.37 G/DL
same,ALKALINE PHOSPHATASE,"120 h, time 5 day",255.33 u/L
same,ASPARTATE AMINOTRANSFERASE,"120 h, time 5 day",47.67 u/L
same,BLOOD UREA NITROGEN,"120 h, time 5 day",15.67 mg/dL
same,CARBON DIOXIDE,"120 h, time 5 day",29.33 mmol/L
same,CHLORIDE,"120 h, time 5 day",105 MEQ/L
same,CHOLESTEROL,"120 h, time 5 day",107 mg/dL
same,CREATINE PHOSPHOKINASE,"120 h, time 5 day",271.67 u/L
same,CREATININE,"120 h, time 5 day",0.12 mg/dL
same,GLUCOSE,"120 h, time 5 day",142.33 mg/dL
same,LACTATE DEHYDROGENASE,"120 h, time 5 day",141.33 u/L
same,LIPASE,"120 h, time 5 day",9.67 u/L
same,PHOSPHORUS,"120 h, time 5 day",11.97 mg/dL
same,POTASSIUM,"120 h, time 5 day",6.74 MEQ/L
same,SODIUM,"120 h, time 5 day",146.57 MEQ/L
same,TOTAL BILIRUBIN,"120 h, time 5 day",0.1 mg/dL
same,TOTAL PROTEIN,"120 h, time 5 day",5.2 G/DL
same,URIC ACID,"120 h, time 5 day",1.33 mg/dL

# Source: ChEMBL document CHEMBL3885881, “DrugMatrix”
